Measurements: patent publication US10640497B2, “Microbiocidal oxadiazole derivatives” (SYNGENTA PARTICIPATIONS AG, priority 2015, dated 2020)

Experiments:
[1] = system: Glomerella lagenarium (Colletotrichum lagenarium); experiment: Fungicidal activity against Glomerella lagenarium (Colletotrichum lagenarium), liquid culture, cucumber, preventative (anthracnose); type: cell-based; details: Colletotrichum orbiculare, liquid culture (PDB), growth inhibition measured photometrically 3-4 days after application, compared to untreated control
Description: Mycelia fragments or conidia suspensions of a fungus, prepared either freshly from liquid cultures of the fungus or from cryogenic storage, are directly mixed into nutrient broth. DMSO solutions of the test compound (max. 10 mg/ml) is diluted with 0.025% Tween20 by a factor of 50 and 10 μl of this solution is pipetted into a microtiter plate (96-well format). The nutrient broth containing the fungal spores/mycelia fragments is then added to give an end concentration of the tested compound. The test plates are incubated in the dark at 24° C. and 96% relative humidity. The inhibition of fungal growth is determined photometrically after 2 to 7 days, depending on the pathosystem, and percent antifungal activity relative to the untreated check is calculated. Conidia of the fungus from cryogenic storage are directly mixed into nutrient broth (PDB potato dextrose broth). After placing a (DMSO) solution of test compound into a microtiter plate (96-well format), the nutrient broth containing the fungal spores is added. The test plates are incubated at 24° C. and the inhibition of growth is measured photometrically 3-4 days after application.

Phakopsora pachyrhizi = experiment: Fungicidal activity against Phakopsora pachyrhizi, soybean, leaf disc preventative (Asian soybean rust); type: in vivo; details: foliar, 288 h, 12-14 days after application, compared to untreated control
Description: Leaf disks or leaf segments of various plant species are cut from plants grown in a greenhouse. The cut leaf disks or segments are placed in multiwell plates (24-well format) onto water agar. The leaf disks are sprayed with a test solution before (preventative) or after (curative) inoculation. Compounds to be tested are prepared as DMSO solutions (max. 10 mg/ml) which are diluted to the appropriate concentration with 0.025% Tween20 just before spraying. The inoculated leaf disks or segments are incubated under defined conditions (temperature, relative humidity, light, etc.) according to the respective test system. A single evaluation of disease level is carried out 3 to 14 days after inoculation, depending on the pathosystem. Percent disease control relative to the untreated check leaf disks or segments is then calculated. Soybean leaf disks are placed on water agar in multiwell plates (24-well format) and sprayed with the formulated test compound diluted in water. One day after application leaf discs are inoculated by spraying a spore suspension on the lower leaf surface. After an incubation period in a climate cabinet of 24-36 hours in darkness at 20° C. and 75% rh leaf disc are kept at 20° C. with 12 h light/day and 75% rh. The activity of a compound is assessed as percent disease control compared to untreated when an appropriate level of disease damage appears in untreated check leaf disks (12-14 days after application).

[2] = system: Puccinia recondita f. sp. tritici; experiment: Fungicidal activity against Puccinia recondita f. sp. tritici, wheat, leaf disc curative (brown rust); type: in vivo; details: foliar, 144 h, wheat leaf segments, curative (applied 1 day after inoculation), 6-8 days after application, compared to untreated control
Description: (§1) Leaf disks or leaf segments of various plant species are cut from plants grown in a greenhouse. The cut leaf disks or segments are placed in multiwell plates (24-well format) onto water agar. The leaf disks are sprayed with a test solution before (preventative) or after (curative) inoculation. Compounds to be tested are prepared as DMSO solutions (max. 10 mg/ml) which are diluted to the appropriate concentration with 0.025% Tween20 just before spraying. The inoculated leaf disks or segments are incubated under defined conditions (temperature, relative humidity, light, etc.) according to the respective test system. A single evaluation of disease level is carried out 3 to 14 days after inoculation, depending on the pathosystem. Percent disease control relative to the untreated check leaf disks or segments is then calculated. Wheat leaf segments cv. Kanzler are placed on agar in multiwell plates (24-well format). The leaf segments are inoculated with a spore suspension of the fungus. Plates are stored in darkness at 19° C. and 75% rh. The formulated test compound diluted in water is applied 1 day after inoculation. The leaf segments are incubated at 19° C. and 75% rh under a light regime of 12 h light/12 h darkness in a climate cabinet and the activity of a compound is assessed as percent disease control compared to untreated when an appropriate level of disease damage appears in untreated check leaf segments (6-8 days after application).

[3] = system: Puccinia recondita f. sp. tritici; experiment: Fungicidal activity against Puccinia recondita f. sp. tritici, wheat, leaf disc preventative (brown rust); type: in vivo; details: foliar, wheat leaf segments, preventative (inoculated 1 day after application), 7-9 days after application, compared to untreated control
Description: as §1, with “plates (24-well format) and sprayed with the formulated test compound diluted in water. The leaf” for “plates (24-well format). The leaf”, “of the fungus 1 day” for “of the fungus. Plates are stored in darkness at 19° C. and 75% rh. The formulated test compound diluted in water is applied 1 day”, “day after application. The inoculated” for “day after inoculation. The leaf”, “application. The inoculated leaf segments” for “inoculation. The leaf segments”, “leaf segments (7-9 days after” for “leaf segments (6-8 days after”

SMILES | inhibition of growth at 20 ppm [1] [%] | pest or weed control at 200 ppm (Phakopsora pachyrhizi) [%] | pest or weed control at 200 ppm [2] [%] | pest or weed control at 200 ppm [3] [%] | melting point [°C]
CC(=O)N1CCN(Cc2ccc(-c3noc(C(F)(F)F)n3)cc2)C(=O)C1 [Compound A-35, 4-acetyl-1-[[4-[5-(trifluoromethyl)-1,2,4-oxadiazol-3-yl]phenyl]methyl]piperazin-2-one] | ≥ 80 | ≥ 80 | ≥ 80 | ≥ 80 | 
O=C1CCCON1Cc1ccc(-c2noc(C(F)(F)F)n2)cc1 [Compound A-37, 2-[[4-[5-(trifluoromethyl)-1,2,4-oxadiazol-3-yl]phenyl]methyl]oxazinan-3-one] | ≥ 80 | ≥ 80 | ≥ 80 | ≥ 80 | 
CON(C)C(=O)N1CCN(Cc2ccc(-c3noc(C(F)(F)F)n3)cc2)C(=O)C1 [Compound A-39, N-methoxy-N-methyl-3-oxo-4-[[4-[5-(trifluoromethyl)-1,2,4-oxadiazol-3-yl]phenyl]methyl]piperazine-1-carboxamide] | ≥ 80 | ≥ 80 | ≥ 80 | ≥ 80 | 
O=C1CN(C(=O)C2CC2)CCN1Cc1ccc(-c2noc(C(F)(F)F)n2)cc1 [Compound A-40, 4-(cyclopropane-carbonyl)-1-[[4-[5-(trifluoromethyl)-1,2,4-oxadiazol-3-yl]phenyl]methyl]piperazin-2-one] | ≥ 80 | ≥ 80 | ≥ 80 | ≥ 80 | 
CN(C)S(=O)(=O)N1CCN(Cc2ccc(-c3noc(C(F)(F)F)n3)cc2)C(=O)C1 [Compound A-42, N,N-dimethyl-3-oxo-4-[[4-[5-(trifluoromethyl)-1,2,4-oxadiazol-3-yl]phenyl]methyl]piperazine-1-sulfonamide] | ≥ 80 | ≥ 80 | ≥ 80 | ≥ 80 | 
CNS(=O)(=O)N1CCN(Cc2ccc(-c3noc(C(F)(F)F)n3)cc2)C(=O)C1 [Compound A-43, N-methyl-3-oxo-4-[[4-[5-(trifluoromethyl)-1,2,4-oxadiazol-3-yl]phenyl]methyl]piperazine-1-sulfonamide] | ≥ 80 | ≥ 80 | ≥ 80 | ≥ 80 | 
CN1CCN(Cc2ccc(-c3noc(C(F)(F)F)n3)cc2)C1=O [Compound A-46, 1-methyl-3-[[4-[5-(trifluoromethyl)-1,2,4-oxadiazol-3-yl]phenyl]methyl]imidazolidin-2-one] | ≥ 80 | ≥ 80 | ≥ 80 | ≥ 80 | 
CN1C(=O)CN(Cc2ccc(-c3noc(C(F)(F)F)n3)cc2)C1=O [Compound A-47, 3-methyl-1-[[4-[5-(trifluoromethyl)-1,2,4-oxadiazol-3-yl]phenyl]methyl]imidazolidine-2,4-dione] | ≥ 80 | ≥ 80 | ≥ 80 | ≥ 80 | 
CN1CCCN(Cc2ccc(-c3noc(C(F)(F)F)n3)cc2)C1=O [Compound A-48, 1-methyl-3-[[4-[5-(trifluoromethyl)-1,2,4-oxadiazol-3-yl]phenyl]methyl]hexahydro-pyrimidin-2-one] | ≥ 80 | ≥ 80 | ≥ 80 | ≥ 80 | 
CN1CC(=O)N(Cc2ccc(-c3noc(C(F)(F)F)n3)cc2)C1=O [Compound A-50, 1-methyl-3-[[4-[5-(trifluoromethyl)-1,2,4-oxadiazol-3-yl]phenyl]methyl]imidazolidine-2,4-dione] | ≥ 80 | ≥ 80 | ≥ 80 | ≥ 80 | 
O=C1CCCCN1Cc1ccc(-c2noc(C(F)(F)F)n2)nc1 [Compound A-53, 1-[[6-[5-(trifluoromethyl)-1,2,4-oxadiazol-3-yl]-3-pyridyl]methyl]piperidin-2-one] |  |  | ≥ 80 | ≥ 80 | 80 to 89
CC(C)(C)OC(=O)N1CC(=O)N(Cc2ccc(-c3noc(C(F)(F)F)n3)cc2)C(=O)C1 [Compound A-62, tert-butyl 3,5-dioxo-4-[[4-[5-(trifluoromethyl)-1,2,4-oxadiazol-3-yl]phenyl]methyl]piperazine-1-carboxylate] | ≥ 80 |  |  | ≥ 80 | 94 to 102
O=C1CCON1Cc1ccc(-c2noc(C(F)(F)F)n2)c(F)c1F [Compound A-66, 2-[[2,3-difluoro-4-[5-(trifluoromethyl)-1,2,4-oxadiazol-3-yl]phenyl]methyl]isoxazolidin-3-one] | ≥ 80 | ≥ 80 | ≥ 80 | ≥ 80 | 
O=C1CCCCCN1Cc1ccc(-c2noc(C(F)(F)F)n2)c(F)c1 [Compound A-69, 1-[[3-fluoro-4-[5-(trifluoromethyl)-1,2,4-oxadiazol-3-yl]phenyl]methyl]azepan-2-one] | ≥ 80 |  |  | ≥ 80 | 80 to 84
O=C1CCCCCN1Cc1ccc(-c2noc(C(F)(F)F)n2)cc1 [Compound A-70, 1-[[4-[5-(trifluoromethyl)-1,2,4-oxadiazol-3-yl]phenyl]methyl]azepan-2-one] | ≥ 80 | ≥ 80 | ≥ 80 | ≥ 80 | 
CON1CCN(c2ccc(-c3noc(C(F)(F)F)n3)cc2)C1=O [Compound C-3, 1-methoxy-3-[4-[5-(trifluoromethyl)-1,2,4-oxadiazol-3-yl]phenyl]imidazolidin-2-one] | ≥ 80 |  |  |  | 185 to 190
O=S1(=O)CCCN1c1ccc(-c2noc(C(F)(F)F)n2)cc1 [Compound D-1, 2-[4-[5-(trifluoromethyl)-1,2,4-oxadiazol-3-yl]phenyl]-1,2-thiazolidine 1,1-dioxide] | ≥ 80 | ≥ 80 | ≥ 80 | ≥ 80 | 
